Results taken from BindingDB's records for doi:10.1021/jm00210a006 (1979).
Where “and” joins values, the source holds several entries; their conditions need not be identical. Equal values may be shown once.

molecular target: Plasminogen (Homo sapiens, UniProt P00747); assay: Competitive inhibition of esterase activity of human plasmin assessed as assessed as decrease in p-nitrophenol production using N-Z-L-Tyr-ONp as substrate by spectrophotometric analysis
Sequence (P00747 97-580 limits assumed): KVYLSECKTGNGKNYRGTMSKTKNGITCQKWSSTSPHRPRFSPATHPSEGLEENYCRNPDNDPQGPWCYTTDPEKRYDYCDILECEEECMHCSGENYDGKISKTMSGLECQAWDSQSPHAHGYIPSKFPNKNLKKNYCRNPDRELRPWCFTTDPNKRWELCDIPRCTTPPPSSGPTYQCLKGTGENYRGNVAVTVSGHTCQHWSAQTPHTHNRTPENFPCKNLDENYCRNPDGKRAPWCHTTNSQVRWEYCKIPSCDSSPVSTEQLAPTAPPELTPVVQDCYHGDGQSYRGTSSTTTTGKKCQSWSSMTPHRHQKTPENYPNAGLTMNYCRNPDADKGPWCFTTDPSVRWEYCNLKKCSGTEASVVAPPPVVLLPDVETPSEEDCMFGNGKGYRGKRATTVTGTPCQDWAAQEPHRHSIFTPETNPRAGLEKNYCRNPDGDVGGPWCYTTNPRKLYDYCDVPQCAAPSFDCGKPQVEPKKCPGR
Sequence (P00747 581-810 limits assumed): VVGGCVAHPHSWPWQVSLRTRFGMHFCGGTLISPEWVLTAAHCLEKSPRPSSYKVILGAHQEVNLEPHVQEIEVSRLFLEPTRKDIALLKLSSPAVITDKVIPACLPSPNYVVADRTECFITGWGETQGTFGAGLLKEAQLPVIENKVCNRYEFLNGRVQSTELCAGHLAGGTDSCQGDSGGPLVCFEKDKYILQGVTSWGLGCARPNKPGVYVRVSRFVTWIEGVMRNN

| Compound | Ki |
| --- | --- |
| N=C(N)c1cccc(Cc2ccccc2)c1 | 630 µM |
| N=C(N)c1cccc(N)c1 | 125 µM and 501 µM and 100 µM and 316 µM |

molecular target: T1, Complement C1s subcomponent (Homo sapiens, UniProt P09871); assay: Competitive inhibition of esterase activity of human activated C1s subunit of first complement component assessed as decrease in p-nitrophenol production using N-Z-L-Tyr-ONp as substrate by spectrophotometric analysis
T1 sequence (P09871 whole entry): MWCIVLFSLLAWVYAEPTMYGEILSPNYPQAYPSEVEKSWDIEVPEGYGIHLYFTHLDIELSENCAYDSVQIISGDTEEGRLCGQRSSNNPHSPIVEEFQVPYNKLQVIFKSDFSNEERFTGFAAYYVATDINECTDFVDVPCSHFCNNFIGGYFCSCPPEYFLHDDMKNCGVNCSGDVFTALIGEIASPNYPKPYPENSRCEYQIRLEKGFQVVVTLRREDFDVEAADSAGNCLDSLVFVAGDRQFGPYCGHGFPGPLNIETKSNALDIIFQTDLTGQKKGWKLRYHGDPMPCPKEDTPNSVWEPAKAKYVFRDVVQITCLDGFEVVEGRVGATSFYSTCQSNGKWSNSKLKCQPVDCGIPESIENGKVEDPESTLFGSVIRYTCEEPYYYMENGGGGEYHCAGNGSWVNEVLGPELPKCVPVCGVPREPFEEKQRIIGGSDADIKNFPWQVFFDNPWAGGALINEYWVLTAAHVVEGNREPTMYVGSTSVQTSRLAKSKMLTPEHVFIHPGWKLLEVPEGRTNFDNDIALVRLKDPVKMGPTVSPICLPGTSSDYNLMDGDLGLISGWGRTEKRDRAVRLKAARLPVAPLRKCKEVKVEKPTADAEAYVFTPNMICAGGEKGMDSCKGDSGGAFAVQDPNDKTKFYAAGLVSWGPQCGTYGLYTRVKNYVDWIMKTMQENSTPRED

| Compound | Ki |
| --- | --- |
| COc1cccc(C(=N)N)c1 | 160 µM |
| Cc1ccc(C(=N)N)cc1C | 9990 µM and 1600 µM and 4000 µM and 6300 µM |
| N=C(N)c1cccc(Br)c1 | 100 µM |
| Cc1cc(C)cc(C(=N)N)c1 | 630 µM and 250 µM and 79 µM |
| N=C(N)c1ccc(CC(=O)C(=O)O)cc1 | 158 µM and 125 µM and 99.9 µM and 79.4 µM |
| N=C(N)c1cccc(OCCCOc2ccccc2)c1 | 12.5 µM and 15.8 µM and 20 µM and 10 µM |

molecular target: T1, Complement C1s subcomponent; assay: Competitive inhibition of esterase activity of human activated C1s subunit of first complement component assessed as decrease in p-nitrophenol production using N-Z-L-Lys-ONp as substrate by spectrophotometric analysis

| Compound | Ki [µM] |
| --- | --- |
| N=C(N)c1cccc(CC(=O)C(=O)O)c1 | 2510 |
